Five compounds from ChEMBL document CHEMBL1139134, “Synthesis and cytotoxic activity of 17-carboxylic acid modified 23-hydroxy betulinic acid ester derivatives” (Bioorg Med Chem Lett, 2007) can be followed below.

Each structure is given as a SMILES string.

In test [1] the test system is B16. Description: Antitumor activity in B16 cells xenografted ICR mouse assessed as tumor weight at 20 mg/kg, ip after 11 days. In kind it is functional. The following applies: route intraperitoneal.
Test [2] deals with B16. Description: Cytotoxicity against mouse B16 cells by MTT assay. Type of test: functional, cell-based. (Tetrazolium dyes change colour on reduction, which living cells bring about.)
Test [3] deals with H22. Description: Antitumor activity in H22 cells xenografted ICR mouse assessed as tumor weight at 20 mg/kg, ip after 4 days. Type of test: functional. The following applies: route intraperitoneal.
Another test concerns Bel-7402. Description: Cytotoxicity against human BEL-7402 cells by MTT assay. In kind it is functional, cell-based.
Test [4] has as its system B16. Description: Antitumor activity in B16 cells xenografted ICR mouse assessed as tumor growth inhibition at 20 mg/kg, ip after 11 days. In kind it is functional. The note with it: 264 h, route intraperitoneal.
Test [5] in a line: Cytotoxicity against human SF763 cells by MTT assay. In kind it is functional, cell-based.
In the next test the test system is C6. Description: Cytotoxicity against […] by MTT assay.
The test system of another test is A549. Description: Cytotoxicity against human A549 cells by MTT assay. In kind it is functional, cell-based.
The subject of test [6] is H22. Description: Antitumor activity in H22 cells xenografted ICR mouse assessed as tumor growth inhibition at 20 mg/kg, ip after 4 days. In kind it is functional. The following applies: 96 h, route intraperitoneal.
Test [7] concerns H22. Description: Antitumor activity in H22 cells xenografted ICR mouse assessed as tumor growth inhibition at 30 mg/kg, iv after 4 days. The note with it: 96 h, read-out: Inhibition.
Test [8] concerns B16. Description: Antitumor activity in B16 cells xenografted ICR mouse assessed as tumor growth inhibition at 25 mg/kg, iv after 11 days. In kind it is functional. The following applies: B16, 264 h.
In test [9] the test system is B16. Description: Antitumor activity in B16 cells xenografted ICR mouse assessed as tumor weight at 25 mg/kg, iv after 11 days. In kind it is functional.

For orientation: IC50 means the point on the concentration scale where inhibition reaches its midpoint. A high value points to lower potency. With `C=C(C)[C@@H]1CC[C@]2(C(=O)O)CC[C@]3(C)[C@H](CC[C@@H]4[C@@]5(C)CC[C@H](O)[C@@](C)(CO)[C@@H]5CC[C@]43C)[C@@H]12`, the Activity in the test with B16 [1] was found to be 1.76 g; in the test on H22 [3], 1.42 g. Moreover, the concentration for half-maximal inhibition (IC50) in the test with B16 [2] was 83 µM; in the test with Bel-7402 it was 97.3 µM; in test [5] it was 105 µM; in the test with C6, 99.5 µM; with A549 it was 87.6 µM. Moreover, the inhibition in vivo at 20 mg/kg was found to be 13.3% in the test with B16 [4] and 10.1% in the test on H22 [6].

As to `C=C(C)[C@@H]1CC[C@]2(C(=O)OCC#CC)CC[C@]3(C)[C@H](CC[C@@H]4[C@@]5(C)CC[C@H](O)[C@@](C)(CO)[C@@H]5CC[C@]43C)[C@@H]12`, the half-maximal inhibitory concentration (IC50) turned out to be 63.1 µM in the test with B16 [2]; 53 µM in the test with Bel-7402; 64.3 µM in test [5]; 75.9 µM in the test on C6; 81.1 µM in the test on A549.

For `O=P1(N(CCCl)CCCl)NCCCO1` (configuration not stated) [CYCLOPHOSPHAMIDE ANHYDROUS], in the test on H22 [7], the inhibition in vivo at 30 mg/kg worked out at 56.3%.

On to `C=C(C)[C@@H]1CC[C@]2(C(=O)O)CC[C@]3(C)[C@H](CC[C@@H]4[C@@]5(C)CC[C@H](O)C(C)(C)[C@@H]5CC[C@]43C)[C@@H]12` [BETULINIC ACID], for which the IC50 in the test on B16 [2] is 53.5 µM; in the test with Bel-7402, 43.4 µM; in test [5], 92.1 µM; in the test on C6 it was 90.7 µM; with A549, 97.5 µM.

On to `O=c1[nH]cc(F)c(=O)[nH]1` [FLUOROURACIL], for which the inhibition in vivo at 25 mg/kg with B16 [8] was determined as 72.4%. The Activity in the test with B16 [9] was 0.56 g.
